Assay results reported in PMC4993599 (Bioorganic & medicinal chemistry letters, 2016).

Key:
[1] = Lipophilicity by analytical reverse phase HPLC; type: physicochemical
TSPO = TSPO (Rattus norvegicus, UniProt P16257); assay: C6 glioma cell lysate binding assay; settings: for binding affinity (in words): TSPO

SMILES: CCCCN(CCCC)C(=O)Cc1c(-c2ccc(OC)cc2)nn2c(CC)cc(CC)nc12 [Compound 12]
- lipophilicity (in words) [1]: extremely lipophilic

SMILES: CCc1cc(CC)n2nc(-c3ccc(OC)cc3)c(CC(=O)N3CCCCC3)c2n1 [Compound 25]
- binding affinity (in words) (TSPO): very poor binding affinity

SMILES: CCc1cc(CC)n2nc(-c3ccc(OC)cc3)c(CC(=O)N(CC)C(C)(C)C)c2n1 [Compound 16]
- decrease of affinity when substituting ethyl groups with t-butyls (TSPO; compound 16 relative to compound 10): over 300 fold

SMILES: CCN(CC)C(=O)Cc1c(-c2ccc(OC)cc2)nn2c(C)cc(C)nc12 [Compound 8, DPA-713, reference compound]
- log P7.5 ([1]; reverse phase HPLC, averaged from triple runs): 2.40

SMILES: CCc1cc(CC)n2nc(-c3ccc(OC)cc3)c(CC(=O)N3CCCC3)c2n1 [Compound 24]
- binding affinity (in words) (TSPO): very poor binding affinity

SMILES: CCCCCCN(CCCCCC)C(=O)Cc1c(-c2ccc(OC)cc2)nn2c(CC)cc(CC)nc12 [Compound 14]
- lipophilicity (in words) [1]: extremely lipophilic

SMILES: CCCCCN(CCCCC)C(=O)Cc1c(-c2ccc(OC)cc2)nn2c(CC)cc(CC)nc12 [Compound 13]
- lipophilicity (in words) [1]: extremely lipophilic

SMILES: CCc1cc(CC)n2nc(-c3ccc(OC)cc3)c(CC(=O)N3CCC3)c2n1 [Compound 23]
- binding affinity (in words) (TSPO): very poor binding affinity
